Measured values from patent US6825230B2, “Spiro and dispiro 1,2,4-trixolane antimalarials” (Medicines for Malaria Venture MMV, priority 2002, dated 2004).
Converted amounts (≈) assume the structure as drawn.

Assays:
[1] = test system: Schistosoma mansoni 21-day-old schistosomules; assay: Effect on 21-day-old schistosomules in infected mice; format: in vivo; conditions: single 200 mg/kg per os, 21-day-old schistosomules; for % reduction of schistosomule growth at day 21 after per os application of 200 mg/kg, FWR (%): female worm reduction rate; for % reduction of schistosomule growth at day 21 after per os application of 200 mg/kg, TWR (%): total worm reduction rate
Protocol: Mice were infected with 100 Schistosoma mansoni cercariae on day 21 post-treatment. Each group was treated per os with trioxolanes at a single dose of 200 mg/kg. […] All groups were killed 4 weeks after treatment and the liver and intestine were removed and separated. The liver and intestine were compressed and alive male and female worms could be seen and counted. The effect of the compounds was evaluated by mean total and female worm burden.

[2] = test system: chloroquine-resistant K1 strain of P. falciparum; assay: In vitro antimalarial semiautomated microdilution assay ([3H]-hypoxanthine incorporation), K1 strain; format: cell-based, Plasmodium falciparum; conditions: Plasmodium falciparum; chloroquine-resistant K1 strain, 72 h incubation; read-out: IC50 (ng/ml) K1
How it was run: (§1)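 Logit regression analysis yields the fifty percent inhibitory concentration. Compounds are tested by semiautomated microdilution on intraerythrocytic parasites drawn from asynchronous stock cultures, measuring [3H]-hypoxanthine incorporation.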

[3] = test system: chloroquine-sensitive NF54 strain of P. falciparum; assay: In vitro antimalarial semiautomated microdilution assay ([3H]-hypoxanthine incorporation), NF54 strain; format: cell-based, Plasmodium falciparum; conditions: Plasmodium falciparum; chloroquine-sensitive NF54 strain, 72 h incubation; read-out: IC50 (ng/ml) NF54
How it was run: as §1

P. berghei ANKA strain = assay: Divided 3x3 mg/kg and 3x1 mg/kg po doses in infected mice; format: in vivo, Plasmodium berghei; conditions: 3 mg/kg po (SSV) on days 1, 2, 3 post-infection
Protocol: Moro NMRI male mice (Fu Albino specific pathogen free) weighing 18±2 g were infected intravenously (i.v.) with 2×10^7 P. berghei ANKA strain-infected erythrocytes from donor mice on day 0 of the experiment. From donor mice with circa 30% parasitemia, heparinized blood was taken and diluted in physiological saline to 10^8 parasitized erythrocytes per ml. An aliquot (0.2 ml) of this suspension was injected i.v. into experimental and control groups of mice. […] Throughout the experiments, mice were kept in groups of three or five animals in Makrolon type II cages in an air-conditioned animal room at 22 to 23° C.
They were administered per os (p.o.) in a total volume of 0.01 ml per gram of mouse. The activity of the compound was determined by a variety of methods outlined in subsequent sections. Survival time was also recorded, and survival to day 30 post-infection was considered to be a cure.
The second experiment consists of administration of divided 3×3 mg/kg and 3×1 mg/kg po doses administered on days 1, 2, and 3 post-infection. On day 4 post-infection, blood smears of all animals were prepared and stained with Giemsa. […] Compounds were administered orally in the SSV vehicle.

[4] = test system: ANKA strain of P. berghei; assay: Single dose STI in vivo screen in infected mice; design: species or system Plasmodium berghei; conditions: for Survival (days) 10 mg/kg SSV po: single 10 mg/kg po in SSV; for Activity (%) 10 mg/kg SSV po: single 10 mg/kg po in standard suspending vehicle (SSV) on day 1 post-infection
[5] = percent reduction in parasitemia on day 3

Row | SMILES | % reduction of schistosomule growth at day 21 after per os application of 200 mg/kg, FWR (%) [1] [%] | % reduction of schistosomule growth at day 21 after per os application of 200 mg/kg, TWR (%) [1] [%] | further results
1 | ON=C1CCC2(CC1)OOC1(O2)C2CC3CC(C2)CC1C3 (stereo not shown) [OZ16] | 77 | 78 | 
2 | CC1(C)CCC2(CC1)OOC1(O2)C2CC3CC(C2)CC1C3 (stereo not shown) [OZ33] | 14 | 28 | 
3 | CC(C)(C)ON=C1CCC2(CC1)OOC1(O2)C2CC3CC(C2)CC1C3 (stereo not shown) [OZ28] | 87 | 81 | 
4 | CON=C1CC2CC3(CC2C1)OOC1(O3)C2CC3CC(C2)CC1C3 (stereo not shown) [OZ37] | 53 | 63 | 
5 | CC1(C)CC(C)(C)CC2(C1)OOC1(O2)C2CC3CC(C2)CC1C3 (stereo not shown) [OZ26] | 40 | 37 | 
6 | O=C(NC[C@H]1CC[C@]2(CC1)OO[C@]1(O2)C2CC3CC(C2)CC1C3)N1CCNCC1 [OZ329] |  |  | IC50 [2]: 0.43 ng/mL (≈ 1.06 nM); IC50 [3]: 0.68 ng/mL (≈ 1.68 nM); Cured infected mice at the 3×3 mg/kg dose (P. berghei ANKA strain): 2/5; Survival (days) 3 mg/kg SSV po ([4]; single 3 mg/kg po in SSV): 9.2 days; Activity (%) 3 mg/kg SSV po ([4]; single 3 mg/kg po in SSV, percent reduction in parasitemia on day 3): 99.50%; Survival (days) 10 mg/kg SSV po ([4]; untreated 6-7 days): 11.2 days; Activity (%) 10 mg/kg SSV po [4, 5]: 99.97%
7 | CS(=O)(=O)N1CCC2(CC1)OOC1(O2)C2CC3CC(C2)CC1C3 (stereo not shown) [OZ56] | 66 | 69 | 
8 | O=C(NN=C1CCC2(CC1)OOC1(O2)C2CC3CC(C2)CC1C3)Nc1ccccc1 (stereo not shown) [OZ30] | 12 | 16 | 
9 | CC(C)(C)OC(=O)N1CCC2(CC1)OOC1(O2)C2CC3CC(C2)CC1C3 (stereo not shown) [OZ35] | 63 | 73 | 
10 | CC(C)(C)CC(=O)N1CCC2(CC1)OOC1(O2)C2CC3CC(C2)CC1C3 (stereo not shown) [OZ111, Adamantane-2-spiro-3′-8′-(3′,3′-dimethylbutanoyl)-1′,2′,4′-trioxa-8′-azaspiro[4.5]decane] | 68 | 71 | Survival (days) 10 mg/kg po ([4]; single 10 mg/kg po in 3% ethanol and 7% Tween 80, untreated 6-7 days): 7.7 days; Activity (%) 10 mg/kg po ([4]; single 10 mg/kg po in 3% ethanol and 7% Tween 80 on day 1 post-infection, percent reduction in parasitemia on day 3): 98%; Survival (days) 10 mg/kg SSV po ([4]; untreated 6-7 days): 6.3 days; Activity (%) 10 mg/kg SSV po [4, 5]: 79%; Survival (days) 10 mg/kg sc ([4]; single 10 mg/kg sc in 3% ethanol and 7% Tween 80, untreated 6-7 days): 8.3 days; Activity (%) 10 mg/kg sc ([4]; single 10 mg/kg sc in 3% ethanol and 7% Tween 80 on day 1 post-infection, percent reduction in parasitemia on day 3): 99.94%
11 | c1ccc(CON=C2CCC3(CC2)OOC2(O3)C3CC4CC(C3)CC2C4)cc1 (stereo not shown) [OZ19] | 74 | 77 | 
12 | C1CC2(CCO1)OOC1(O2)C2CC3CC(C2)CC1C3 (stereo not shown) [OZ22] | 76 | 75 | 
13 | CC1(O)CCC2(CC1)OOC1(O2)C2CC3CC(C2)CC1C3 (stereo not shown) [OZ90] | 79 | 81 | 
